# Measured values published in patent US5869494A, “Uses for barbituric acid analogs” (priority 1997, dated 1999).
# Where two headings read alike, the source gives them in different places.
# Tests used:
# [1] = test system: PC-3 human prostate cancer cells; experiment: Cytotoxicity for prostate cancer cell line PC-3 (MTT assay); assay type: cell-based; details: read-out: Percent cell kill; for cytotoxicity at 50 µg/mL: 50 μg/ml; for cytotoxicity at 100 µg/mL: 100 μg/ml; for cytotoxicity at 150 µg/mL: 150 μg/ml
# Procedure: (§1) In the following examples, tumor cells were treated with varying concentrations of compounds C1, C2, C4 or C5 dissolved in absolute ethanol. To limit any non-specific toxicity, the final concentration of ethanol was not allowed to exceed 0.5%. Stock concentrations of 5 mg/ml or 20 mg/ml were used. Viability of cells was determined in some studies by the trypan blue dye exclusion method. In other studies, cell viability/proliferation activity was determined by MTT assay by using a kit obtained from Promega, (Promega Corp., Madison, Wis. 53711). For this assay, a 100 μl cell suspension containing 5-10^3 monolayer cells or 1×10^5 suspension cells was placed in the wells of a 96-well microtiter plate. After overnight incubation, cells were treated with different concentrations of the test compound. Control wells received vehicle only. After 24, 48, 72 or 96 h of incubation, 50 μl of MTT dye solution was added. After 4 h of incubation at 37° C., 100 μl of solubilization/stop solution was added. After another h of incubation, cells were mixed using a multi-channel pipet and the absorption of the dye color was recorded at 570 nm using a plate reading absorption spectrophotometer.
# (§2) After the incubation period, viability of the cells was determined by MTT assay (Promega Corp., Madison, Wis. 53711).
# [2] = test system: DU-145 human prostate cancer cells; experiment: Cytotoxicity for prostate cancer cell line DU-145 (MTT assay); assay type: cell-based; details: read-out: Percent cell kill; for cytotoxicity at 50 µg/mL: 50 μg/ml; for cytotoxicity at 100 µg/mL: 100 μg/ml; for cytotoxicity at 150 µg/mL: 150 μg/ml
# Procedure: as §1, §2
# [3] = test system: MCF-7 human breast cancer cells; experiment: Cytotoxicity for breast cancer cell line MCF-7 (MTT assay); assay type: cell-based; details: read-out: Percent cell kill; for cytotoxicity at 50 µg/mL: 50 μg/ml; for cytotoxicity at 100 µg/mL: 100 μg/ml; for cytotoxicity at 150 µg/mL: 150 μg/ml
# Procedure: as §1, §2
# [4] = test system: BT-20 human breast cancer cells; experiment: Cytotoxicity for breast cancer cell line BT-20 (MTT assay); assay type: cell-based; details: read-out: Percent cell kill; for cytotoxicity at 50 µg/mL: 50 μg/ml; for cytotoxicity at 100 µg/mL: 100 μg/ml; for cytotoxicity at 150 µg/mL: 150 μg/ml
# Procedure: as §1, §2
# [5] = test system: Daudi human lymphoma cells; experiment: Cytotoxicity for lymphoma cells (Daudi); assay type: cell-based; details: for cytotoxicity at 50 µg/mL / cytotoxicity at 100 µg/mL / cytotoxicity at 150 µg/mL: Homo sapiens, Daudi; for cytotoxicity at 50 µg/mL: 50 μg/ml; for cytotoxicity at 100 µg/mL: 100 μg/ml; for cytotoxicity at 150 µg/mL: 150 μg/ml, read-out: % Cytotoxicity
# Procedure: as §1
# The viability of the cells was
# Compounds C4 and C5 were also tested for toxicity against human lymphoma Daudi cells.
# [6] = test system: L1210 mouse leukemia cells; experiment: Cytotoxicity for leukemia cells (L1210); assay type: cell-based; details: for cytotoxicity at 50 µg/mL / cytotoxicity at 110 µg/mL / cytotoxicity at 150 µg/mL: Mus musculus; for cytotoxicity at 50 µg/mL: 50 μg/ml; for cytotoxicity at 110 µg/mL: 110 μg/ml; for cytotoxicity at 150 µg/mL: 150 μg/ml
# Procedure: as §1
# The viability of the cells was […]
# [7] = In vivo toxicity, repeat oral dose; set-up: species or system BALB/c mice; details: for mortality: group of three mice
# Procedure: In preliminary repeat dose studies, a suspension of C1 in polyethylene glycol (C1 is mixed with a 2.5% solution of polyethylene glycol and homogenized in a sterile dounce homogenizer until it flows freely through a 22×11/2" with 11/4 mm ball feeding needle) was administered orally to a group of three BALB/c mice.
# [8] = test system: Herpes simplex virus (HSV); experiment: Inactivation of Herpes simplex virus (plaque assay on Vero cells); assay type: cell-based; details: for PFU/ml: control 7.1 × 10^5
# Procedure: The control sample received vehicle only. After the incubation period, samples were serially diluted and 0.1 ml of each dilution and the undiluted samples were inoculated into monolayers of Vero cells (African green monkey kidney cells). Overlay medium was added and the monolayers were incubated at 37° C. After 3 days of incubation, the overlay medium was removed, and the monolayer cells were fixed with methanol and treated with Giemsa stain.
# [9] = test system: T cells; experiment: Modulation of T cells in HIV-1 positive subjects; assay type: in vivo, human; details: 4.3 mg/kg for 15 days; one subject; before treatment 425; normal range 650-1330
# Excerpt: Blood samples were drawn before and after on day 15 or 30 from the initiation of treatment for regular CBC profile. […] The normal range of T cells is 650-1330.
# [10] = 48 h, all concentrations tested
# [11] = Vero, 150 μg/ml, 24 h at 37° C.
structure (smiles),measurement,setting,value
"CCCCN1C(=O)CC(=O)N(CCCC)C1=S [Compound C1, 4,6(1H, 5H)-pyrimidinedione, 1,3-dibutyldihydro-2-thioxo]",cytotoxicity at 50 µg/mL,"[1]; 24 h, 24 hr",61.7 ± 10%
same,cytotoxicity at 100 µg/mL,"[1]; 24 h, 24 hr",88.7 ± 5.5%
same,cytotoxicity at 150 µg/mL,"[1]; 24 h, 24 hr",90.5 ± 7.1%
same,cytotoxicity at 50 µg/mL,"[1]; 48 h, 48 hr",91 ± 3.6%
same,cytotoxicity at 100 µg/mL,"[1]; 48 h, 48 hr",92.7 ± 1.2%
same,cytotoxicity at 150 µg/mL,"[1]; 48 h, 48 hr",94.9 ± 5.3%
same,cytotoxicity at 50 µg/mL,"[1]; 72 h, 72 hr",100%
same,cytotoxicity at 100 µg/mL,"[1]; 72 h, 72 hr",100%
same,cytotoxicity at 150 µg/mL,"[1]; 72 h, 72 hr",100%
same,cytotoxicity at 50 µg/mL,"[1]; 96 h, 96 hr",100%
same,cytotoxicity at 100 µg/mL,"[1]; 96 h, 96 hr",100%
same,cytotoxicity at 150 µg/mL,"[1]; 96 h, 96 hr",> 96%
same,cytotoxicity at 50 µg/mL,"[2]; DU-145, 24 h, 24 hr",0%
same,cytotoxicity at 100 µg/mL,"[2]; DU-145, 24 h, 24 hr",27.5 ± 6.4%
same,cytotoxicity at 150 µg/mL,"[2]; DU-145, 24 h, 24 hr",43 ± 2.9%
same,cytotoxicity at 50 µg/mL,"[2]; DU-145, 48 h, 48 hr",0%
same,cytotoxicity at 100 µg/mL,"[2]; DU-145, 48 h, 48 hr",52.2 ± 3.4%
same,cytotoxicity at 150 µg/mL,"[2]; DU-145, 48 h, 48 hr",71 ± 7.3%
same,cytotoxicity at 50 µg/mL,"[2]; DU-145, 72 h, 72 hr",23.5 ± 4.5%
same,cytotoxicity at 100 µg/mL,"[2]; DU-145, 72 h, 72 hr",58.7 ± 2.1%
same,cytotoxicity at 150 µg/mL,"[2]; DU-145, 72 h, 72 hr",78.7 ± 3.4%
same,cytotoxicity at 50 µg/mL,"[2]; DU-145, 96 h, 96 hr",26.2 ± 5.5%
same,cytotoxicity at 100 µg/mL,"[2]; DU-145, 96 h, 96 hr",64 ± 4.2%
same,cytotoxicity at 150 µg/mL,"[2]; DU-145, 96 h, 96 hr",82.5 ± 3.7%
same,cytotoxicity at 50 µg/mL,"[3]; MCF7, 24 h, 24 hr",39.5 ± 10.5%
same,cytotoxicity at 100 µg/mL,"[3]; MCF7, 24 h, 24 hr",57.3 ± 1.5%
same,cytotoxicity at 150 µg/mL,"[3]; MCF7, 24 h, 24 hr",87.8 ± 8.8%
same,cytotoxicity at 50 µg/mL,"[3]; MCF7, 48 h, 48 hr",67.5 ± 5.3%
same,cytotoxicity at 100 µg/mL,"[3]; MCF7, 48 h, 48 hr",92.8 ± 4.9%
same,cytotoxicity at 150 µg/mL,"[3]; MCF7, 48 h, 48 hr",92.3 ± 5.3%
same,cytotoxicity at 50 µg/mL,"[3]; MCF7, 72 h, 72 hr",85.8 ± 3.8%
same,cytotoxicity at 100 µg/mL,"[3]; MCF7, 72 h, 72 hr",88 ± 5.4%
same,cytotoxicity at 150 µg/mL,"[3]; MCF7, 72 h, 72 hr",84.5 ± 5.1%
same,cytotoxicity at 50 µg/mL,"[3]; MCF7, 96 h, 96 hr",97.8 ± 1.7%
same,cytotoxicity at 100 µg/mL,"[3]; MCF7, 96 h, 96 hr",97.8 ± 1.7%
same,cytotoxicity at 150 µg/mL,"[3]; MCF7, 96 h, 96 hr",96.5 ± 2.5%
same,cytotoxicity at 50 µg/mL,"[4]; BT-20, 24 h, 24 hr",43.3 ± 4.1%
same,cytotoxicity at 100 µg/mL,"[4]; BT-20, 24 h, 24 hr",62 ± 7.9%
same,cytotoxicity at 150 µg/mL,"[4]; BT-20, 24 h, 24 hr",94 ± 4.2%
same,cytotoxicity at 50 µg/mL,"[4]; BT-20, 48 h, 48 hr",65.5 ± 2.4%
same,cytotoxicity at 100 µg/mL,"[4]; BT-20, 48 h, 48 hr",91.3 ± 2.5%
same,cytotoxicity at 150 µg/mL,"[4]; BT-20, 48 h, 48 hr",96.5 ± 2.4%
same,cytotoxicity at 50 µg/mL,"[4]; BT-20, 72 h, 72 hr",73.3 ± 2.9%
same,cytotoxicity at 100 µg/mL,"[4]; BT-20, 72 h, 72 hr",86.8 ± 3.6%
same,cytotoxicity at 150 µg/mL,"[4]; BT-20, 72 h, 72 hr",86 ± 3.6%
same,cytotoxicity at 50 µg/mL,"[4]; BT-20, 96 h, 96 hr",100%
same,cytotoxicity at 100 µg/mL,"[4]; BT-20, 96 h, 96 hr",100%
same,cytotoxicity at 150 µg/mL,"[4]; BT-20, 96 h, 96 hr",100%
same,killing of cells,[5]; [10],over 99%
same,cytotoxicity at 50 µg/mL,[5]; 24 h,91.3 ± 4.6%
same,cytotoxicity at 100 µg/mL,[5]; 24 h,93.3 ± 4.9%
same,cytotoxicity at 150 µg/mL,"[5]; 24 h, 24 hr",94 ± 4.9%
same,cytotoxicity at 50 µg/mL,[5]; 48 h,99.9%
same,cytotoxicity at 100 µg/mL,[5]; 48 h,99.9%
same,cytotoxicity at 150 µg/mL,"[5]; 48 h, 48 hr",99.9%
same,killing of cells,[6]; [10],over 99%
same,cytotoxicity at 50 µg/mL,"[6]; L1210, 24 h, 24 hr",81.2 ± 4.3%
same,cytotoxicity at 110 µg/mL,"[6]; L1210, 24 h, 24 hr",93.5 ± 3.1%
same,cytotoxicity at 150 µg/mL,"[6]; L1210, 24 h, 24 hr",89.2 ± 3.2%
same,cytotoxicity at 50 µg/mL,"[6]; L1210, 48 h, 48 hr",99%
same,cytotoxicity at 110 µg/mL,"[6]; L1210, 48 h, 48 hr, read-out: % Cytotoxicity",99.9%
same,cytotoxicity at 150 µg/mL,"[6]; L1210, 48 h, 48 hr",99.9%
same,tolerability and survival,"[7]; 400 mg/kg daily oral, 10 days",easily tolerated and all animals survived the treatment
same,mortality,[7]; 800 mg/kg daily oral,one animal died on day three and another died on day 10
same,mortality,[7]; 1000 mg/kg daily oral,"one animal died on day 2, another on day 5 and a third animal died on day 10"
same,mortality,[7]; 1200 mg/kg daily oral,all animals died on day 3
same,PFU/ml,"[8]; 30 μg/ml, 24 h at 37° C.",2.1 × 10^5 PFU/ml
same,PFU/ml,"[8]; 120 μg/ml, 24 h at 37° C.",6.5 × 10^5 PFU/ml
same,PFU/ml,"[8]; 150 μg/ml, 24 h at 37° C.",7.5 × 10^5 PFU/ml
same,log reduction at 120 µg/mL,"[8]; Vero, 24 h",2.04
same,killing at 120 µg/mL,"[8]; Vero, 24 h, read-out: % Inactivation",99%
same,killing at 30 µg/mL,"[8]; Vero, 30 μg/ml, 24 h at 37° C.",70.4%
same,log reduction at 30 µg/mL,"[8]; Vero, 30 μg/ml, 24 h at 37° C.",0.53
same,killing at 60 µg/mL,"[8]; Vero, 60 μg/ml, 24 h at 37° C.",78.9%
same,log reduction at 60 µg/mL,"[8]; Vero, 60 μg/ml, 24 h at 37° C.",0.68
same,killing at 150 µg/mL,[8]; [11],99.9%
same,log reduction at 150 µg/mL,[8]; [11],3
same,T cell count after treatment,[9],720
